Measurements from paper PMC9848270, “Synthesis and biological assessment of indole derivatives containing penta-heterocycles scaffold as novel anticancer agents towards A549 and K562 cells” (Journal of Enzyme Inhibition and Medicinal Chemistry, 2023).
Like-named read-outs stand apart in the source and are kept apart here.

How the values were obtained:
[1] = MTT cytotoxicity, normal cell line HEK293; assay type: cell-based, human; conditions: human; for IC50 at 48 h: HEK293 cells (normal cell line), MTT assay, normal cell line, CC50, read-out: In vitro cytotoxicity IC50, HEK293
[2] = test system: normal cell line (HEK293); assay: MTT cytotoxicity, normal cell line HEK293; assay type: cell-based, human; conditions: Homo sapiens, HEK293; 10 μM; read-out: Inhibition rate, HEK293
[3] = test system: human liver cancer cells (HepG2); assay: MTT antiproliferative assay, HepG2; assay type: cell-based; conditions: for inhibition at 10 µM: read-out: Inhibition rate, HepG2; for IC50: MTT assay, 48 h, read-out: In vitro cytotoxicity IC50, HepG2
Procedure: (§1) A549, PC-3, HepG2 and K562 cells were purchased from the Kunming cell bank of the Chinese academy of sciences. All cell lines were cultured in DMEM or RPMI 1640 complete medium. Logarithmic growth cells were cultured in 96-well plates at a concentration of 10^4 cells per well and pre-cultured for 24 h before adding test compounds. The MTT test with 5-Fluorouracil and Gefitinib as reference compounds were used to evaluate antiproliferative activity of target compounds in four human cancer line cells. For the estimation of the inhibition concentration (IC50), the Graph Pad Prism (GraphPad Software, San Diego, CA) was used.

[4] = test system: human prostate cancer cells (PC-3); assay: MTT antiproliferative assay, PC-3; assay type: cell-based; conditions: Homo sapiens; for IC50: 48 h, MTT assay, read-out: In vitro cytotoxicity IC50, PC-3; for inhibition at 10 µM: read-out: Inhibition rate, PC-3
Procedure: as §1

[5] = test system: human chronic myeloid leukaemia cells (K562); assay: MTT antiproliferative assay, K562; assay type: cell-based; conditions: for inhibition at 10 µM: K562, 10 μM, read-out: Inhibition rate, K562
Procedure: as §1

[6] = test system: human non-small cell lung cancer cells (A549); assay: MTT antiproliferative assay, A549; assay type: cell-based; conditions: for inhibition at 10 µM: A549, 10 μM, read-out: Inhibition rate, A549
Procedure: as §1

[7] = K562, 48 h, MTT assay, 48 h, read-out: In vitro cytotoxicity IC50, K562
[8] = A549, 48 h, MTT assay, 48 h, read-out: In vitro cytotoxicity IC50, A549

melting point [°C]	IC50 ([5]; K562, Table 2, unit inferred, repeats Table 1, read-out: K562 (IC50, Table 2)) [nM]	IC50 ([6]; A549, Table 2, unit inferred, repeats Table 1, read-out: A549 (IC50, Table 2)) [µM]	SMILES	IC50 at 48 h [1] [nM]	inhibition at 10 µM [2] [%]	inhibition at 10 µM [3] [%]	IC50 [3] [µM]	IC50 [4] [µM]	inhibition at 10 µM [4] [%]	inhibition at 10 µM [5] [%]	IC50 [5, 7] [nM]	inhibition at 10 µM [6] [%]	IC50 [6, 8] [µM]	CC50 ([1]; HEK293 cells, Table 2, unit inferred, repeats Table 1) [nM]
233 to 235	–	–	O=C(CSc1nnc(-c2cccnc2)s1)Nc1cc(-c2c[nH]c3ccccc23)n[nH]1 [Compound 10h, N-(3-(1H-indol-3-yl)-1H-pyrazol-5-yl)-2-((5-(pyridine-3-yl)-1,3,4-thiadiazol-2-yl)thio)acetamide]	21900 ± 1310	18.7 ± 8.52	63.2 ± 5.32	5.58 ± 2.69	16.7 ± 4.86	28.9 ± 2.71	64.3 ± 8.28	6930 ± 1630	43.5 ± 1.7	7.96 ± 1.39	–
195 to 197	63.9 ± 20	1.15 ± 0.26	Nn1c(SCC(=O)Nc2cc(-c3c[nH]c4ccccc34)n[nH]2)nnc1-c1cccnc1 [Compound 11h, N-(3-(1H-indol-3-yl)-1H-pyrazol-5-yl)-2-((4-amino-5-(pyridine-3-yl)-4H-1,2,4-triazol-3-yl)thio)acetamide]	1790 ± 630	77.8 ± 4.16	93.6 ± 0.215	1.23 ± 0.06	3.16 ± 0.23	65.1 ± 0.595	98.6 ± 0.417	60	97.8 ± 0.354	1.15 ± 0.26	1790 ± 630
241 to 243	–	–	Nn1c(SCC(=O)Nc2cc(-c3c[nH]c4ccccc34)n[nH]2)nnc1-c1ccc[nH]1 [Compound 11r, N-(3-(1H-indol-3–yl)-1H-pyrazol-5-yl)-2-((4-amino-5-(1H-pyrrol-2-yl)-4H-1,2,4-triazol-3-yl)thio)acetamide]	1530 ± 930	72.3 ± 5.76	96.5 ± 1.22	1.75 ± 0.07	2.73 ± 1.05	79.4 ± 9.21	95 ± 2.52	1840 ± 660	94.2 ± 1.81	2.72 ± 0.26	–
–	–	–	O=C(CSc1nnc(-c2cc(Cl)cc(Cl)c2)s1)Nc1cc(-c2c[nH]c3ccccc23)n[nH]1 [Compound 10a, N-(3-(1H-indol-3-yl)-1H-pyrazol-5-yl)-2-((5-(3,5-dichlorophenyl)-1,3,4-thiadiazol-2-yl)thio)acetamide]	1330 ± 70	87.6 ± 2.19	76 ± 3.39	4.45 ± 0.42	0.141 ± 0.01	95.7 ± 0.624	96 ± 2.31	52.7 ± 20	85.6 ± 3.54	0.433 ± 0.1	–
209 to 212	–	–	Nn1c(SCC(=O)Nc2cc(-c3c[nH]c4ccccc34)n[nH]2)nnc1-c1ccc(F)cc1 [Compound 11p, N-(3-(1H-indol-3-yl)-1H-pyrazol-5-yl)-2-((4-amino-5–(4-fluorophenyl)-4H-1,2,4-triazol-3-yl)thio)acetamide]	28900 ± 520	5.33 ± 14.9	22.8 ± 2.22	19.3 ± 6.15	33.3 ± 5.94	17.1 ± 1.22	11.7 ± 0.639	33200 ± 4950	23.9 ± 3.03	93.9 ± 7.47	–
238 to 240	–	–	COc1ccc(-c2nnc(SCC(=O)Nc3cc(-c4c[nH]c5ccccc45)n[nH]3)n2N)cc1 [Compound 11e, N-(3-(1H-indol-3-yl)-1H-pyrazol-5-yl)-2-((4-amino-5–(4-methoxyphenyl)-4H-1,2,4-triazol-3-yl)thio)acetamide]	4940 ± 750	67.3 ± 1.39	63.5 ± 20	10.4 ± 2.86	11.7 ± 1.64	54.7 ± 14.8	98.7 ± 0.418	4320 ± 530	47.9 ± 9.44	21.4 ± 4.46	–
151 to 153	–	–	O=C(CSc1nnc(Cc2ccc(Cl)cc2)s1)Nc1cc(-c2c[nH]c3ccccc23)n[nH]1 [Compound 10d, N-(3-(1H-indol-3-yl)-1H-pyrazol-5-yl)-2-((5-(4-chlorobenzyl)-1,3,4-thiadiazol-2-yl)thio)acetamide]	740 ± 1250	84.7 ± 2.75	93.7 ± 1.88	0.732 ± 0.15	1.6 ± 0.44	82.6 ± 4.95	96.1 ± 1.29	184 ± 20	90.7 ± 6.19	1.28 ± 0.33	–
230 to 232	–	–	Nn1c(SCC(=O)Nc2cc(-c3c[nH]c4ccccc34)n[nH]2)nnc1-c1c[nH]c2ccccc12 [Compound 11n, N-(3-(1H-indol-3-yl)-1H-pyrazol-5-yl)-2-((4-amino-5-(1H-indol-3-yl)-4H-1,2,4-triazol-3-yl)thio)acetamide]	5020 ± 1290	44.7 ± 4.73	80.5 ± 3.62	2.76 ± 1.74	10.4 ± 0.46	56.6 ± 12.9	97.1 ± 0.377	4380 ± 450	31 ± 0.996	31.3 ± 3.29	–
226 to 227	–	–	Nn1c(SCC(=O)Nc2cc(-c3c[nH]c4ccccc34)n[nH]2)nnc1-c1ccccc1F [Compound 11g, N-(3-(1H-indol-3-yl)-1H-pyrazol-5-yl)-2-((4-amino-5–(2-fluorophenyl)-4H-1,2,4-triazol-3-yl)thio)acetamide]	5050 ± 1170	65.4 ± 6.38	74.9 ± 25.5	9.65 ± 5.87	6.52 ± 1.85	72.2 ± 13.2	98.5 ± 0.653	3780 ± 540	67.5 ± 1.65	10.1 ± 2.37	–
213 to 215	–	–	Nc1ccc(-c2nnc(SCC(=O)Nc3cc(-c4c[nH]c5ccccc45)n[nH]3)n2N)cc1 [Compound 11l, N-(3-(1H-indol-3-yl)-1H-pyrazol-5-yl)-2-((4-amino-5–(4-aminophenyl)-4H-1,2,4-triazol-3-yl)thio)acetamide]	1380 ± 1170	79.6 ± 2.23	93.5 ± 1.56	1.37 ± 0.57	2.88 ± 0.1	71.9 ± 4.55	99 ± 0.2	363 ± 100	96.7 ± 0.847	1.73 ± 0.3	–
–	–	–	O=C(CSc1nnc(-c2ccc(Cl)cc2)s1)Nc1cc(-c2c[nH]c3ccccc23)n[nH]1 [Compound 10f, N-(3-(1H-indol-3-yl)-1H-pyrazol-5-yl)-2-((5-(4-chlorophenyl)-1,3,4-thiadiazol-2-yl)thio)acetamide]	2560 ± 900	60.9 ± 6.65	90.3 ± 2.77	3.34 ± 0.6	8.86 ± 7.04	58.7 ± 28.6	95.8 ± 3.98	991 ± 520	85.2 ± 3.63	4.33 ± 0.3	–
259 to 261	–	–	COc1cc(-c2nnc(SCC(=O)Nc3cc(-c4c[nH]c5ccccc45)n[nH]3)n2N)cc(OC)c1OC [Compound 11b, N-(3-(1H-indol-3-yl)-1H-pyrazol-5-yl)-2-((4-amino-5–(3,4,5-trimethoxyphenyl)-4H-1,2,4-triazol-3-yl)thio)acetamide]	20200 ± 4080	72.1 ± 1.62	72.7 ± 4.94	10.6 ± 1.42	5.73 ± 1.69	80.3 ± 3.56	96.4 ± 1.16	3090 ± 410	32.6 ± 3.42	29.8 ± 4.05	–
170 to 172	–	–	Nn1c(SCC(=O)Nc2cc(-c3c[nH]c4ccccc34)n[nH]2)nnc1-c1ccncc1 [Compound 11o, N-(3-(1H-indol-3-yl)-1H-pyrazol-5-yl)-2-((4-amino-5-(pyridin-4-yl)-4H-1,2,4-triazol-3-yl)thio)acetamide]	21800 ± 1760	–	–	33.4 ± 7.97	38.3 ± 1.75	–	–	66000 ± 3480	–	30.3 ± 7	–
–	–	–	COc1ccc(-c2nnc(SCC(=O)Nc3cc(-c4c[nH]c5ccccc45)n[nH]3)s2)cc1 [Compound 10e, N-(3-(1H-indol-3-yl)-1H-pyrazol-5-yl)-2-((5-(4-methoxyphenyl)-1,3,4-thiadiazol-2-yl)thio)acetamide]	890 ± 2320	85.5 ± 1.26	95.5 ± 0.354	0.801 ± 0.09	0.852 ± 0.43	92.5 ± 0.391	98.7 ± 1.05	193 ± 90	92.2 ± 1.01	0.834 ± 0.09	–
263 to 266	–	–	Nn1c(SCC(=O)Nc2cc(-c3c[nH]c4ccccc34)n[nH]2)nnc1-c1ccccc1O [Compound 11q, N-(3-(1H-indol-3-yl)-1H-pyrazol-5-yl)-2-((4-amino-5–(2-hydroxyphenyl)-4H-1,2,4-triazol-3-yl)thio)acetamide]	2660 ± 1290	99.3 ± 0.02	84.7 ± 11.4	8.23 ± 7.58	2.89 ± 0.15	86.3 ± 0.332	99.2 ± 1.2	2340 ± 340	89.4 ± 2.21	4.14 ± 1.71	–
